Assay results published in publication PMC7367925, “The EU-ToxRisk method documentation, data processing and chemical testing pipeline for the regulatory use of new approach methods” (Archives of Toxicology, 2020).

How the values were obtained:
Androgen receptor = biological target: T1, Androgen receptor (Homo sapiens, UniProt P10275); format: cell-based; conditions: 24 h exposure, lowest effect level PC20, reference agonist at EC50, means from 3 assay runs
T1 construct: host or cells: U-2 OS
T1 sequence (P10275 1-920): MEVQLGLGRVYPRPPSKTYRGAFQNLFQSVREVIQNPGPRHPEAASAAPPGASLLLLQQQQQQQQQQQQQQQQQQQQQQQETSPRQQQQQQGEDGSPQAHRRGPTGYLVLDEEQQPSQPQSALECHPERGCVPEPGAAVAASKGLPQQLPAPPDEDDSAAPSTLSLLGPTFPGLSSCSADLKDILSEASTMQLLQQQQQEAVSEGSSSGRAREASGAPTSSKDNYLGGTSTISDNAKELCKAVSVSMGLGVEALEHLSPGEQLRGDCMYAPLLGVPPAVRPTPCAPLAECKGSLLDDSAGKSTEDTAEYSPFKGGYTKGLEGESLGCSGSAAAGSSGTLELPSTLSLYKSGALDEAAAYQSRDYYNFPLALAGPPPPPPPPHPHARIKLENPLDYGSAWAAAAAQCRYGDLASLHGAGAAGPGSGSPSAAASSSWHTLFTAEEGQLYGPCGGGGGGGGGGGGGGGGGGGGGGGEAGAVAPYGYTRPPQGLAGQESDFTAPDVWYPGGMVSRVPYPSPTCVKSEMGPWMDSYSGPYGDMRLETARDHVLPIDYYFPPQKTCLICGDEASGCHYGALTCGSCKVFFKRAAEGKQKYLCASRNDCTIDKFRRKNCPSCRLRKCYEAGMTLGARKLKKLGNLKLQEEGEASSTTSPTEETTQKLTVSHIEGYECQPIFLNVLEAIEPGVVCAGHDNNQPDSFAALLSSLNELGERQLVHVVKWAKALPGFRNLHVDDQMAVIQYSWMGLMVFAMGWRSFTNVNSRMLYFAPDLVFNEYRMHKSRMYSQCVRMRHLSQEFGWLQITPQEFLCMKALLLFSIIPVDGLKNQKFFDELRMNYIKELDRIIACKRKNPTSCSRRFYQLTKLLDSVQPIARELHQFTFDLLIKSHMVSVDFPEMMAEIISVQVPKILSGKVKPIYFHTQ
Description: (§1) After 24 h, exposure medium was prepared. […] All samples were tested in triplicates. […] Fig. SM_4. […] Fig. SM_4.
(§2) Supplementary Material SM_4
(§3) Overview of CALUX assays.
(§4) This is defined as the concentration of test compound […]
(§5) for an antagonist assay is a PC20.
(§6) PC = positive control. FI = fold induction. PC10: concentration where test compound causes an activation equal to 10% of the maximum effect (positive control). PC20: concentration where test compound causes […]
(§7) FI=1.5: concentration where test
(§8) (A) exemplary graph of concentration- […]
(§9) receptor antagonism assay with PC20 as lowest-effect-level. (C) exemplary graph for assay with 1.5 fold inductionas lowest effect level. 9

Estrogen receptor alpha = biological target: T2, Estrogen receptor alpha (Homo sapiens, UniProt P03372); assay: ERa-anti CALUX; format: cell-based; conditions: 24 h exposure, lowest effect level PC20, reference agonist at EC50, means from 3 assay runs
T2 construct: host or cells: U-2 OS
Description: as §1
Cell line Endpoint effect Reference compound […]
ERa-anti CALUX Estrogen receptor antagonists PC20 tamoxifen […]
Cytotox CALUX Cytoxicity PC20 tributyltinacetate
as §2, §3, §4, §5, §6, §7, §8, §9

Progesterone receptor = biological target: T3, Progesterone receptor (Homo sapiens, UniProt P06401); assay: PR-anti CALUX; format: cell-based; conditions: 24 h exposure, lowest effect level PC20, reference agonist at EC50, means from 3 assay runs
T3 construct: host or cells: U-2 OS
T3 sequence (P06401 1-933): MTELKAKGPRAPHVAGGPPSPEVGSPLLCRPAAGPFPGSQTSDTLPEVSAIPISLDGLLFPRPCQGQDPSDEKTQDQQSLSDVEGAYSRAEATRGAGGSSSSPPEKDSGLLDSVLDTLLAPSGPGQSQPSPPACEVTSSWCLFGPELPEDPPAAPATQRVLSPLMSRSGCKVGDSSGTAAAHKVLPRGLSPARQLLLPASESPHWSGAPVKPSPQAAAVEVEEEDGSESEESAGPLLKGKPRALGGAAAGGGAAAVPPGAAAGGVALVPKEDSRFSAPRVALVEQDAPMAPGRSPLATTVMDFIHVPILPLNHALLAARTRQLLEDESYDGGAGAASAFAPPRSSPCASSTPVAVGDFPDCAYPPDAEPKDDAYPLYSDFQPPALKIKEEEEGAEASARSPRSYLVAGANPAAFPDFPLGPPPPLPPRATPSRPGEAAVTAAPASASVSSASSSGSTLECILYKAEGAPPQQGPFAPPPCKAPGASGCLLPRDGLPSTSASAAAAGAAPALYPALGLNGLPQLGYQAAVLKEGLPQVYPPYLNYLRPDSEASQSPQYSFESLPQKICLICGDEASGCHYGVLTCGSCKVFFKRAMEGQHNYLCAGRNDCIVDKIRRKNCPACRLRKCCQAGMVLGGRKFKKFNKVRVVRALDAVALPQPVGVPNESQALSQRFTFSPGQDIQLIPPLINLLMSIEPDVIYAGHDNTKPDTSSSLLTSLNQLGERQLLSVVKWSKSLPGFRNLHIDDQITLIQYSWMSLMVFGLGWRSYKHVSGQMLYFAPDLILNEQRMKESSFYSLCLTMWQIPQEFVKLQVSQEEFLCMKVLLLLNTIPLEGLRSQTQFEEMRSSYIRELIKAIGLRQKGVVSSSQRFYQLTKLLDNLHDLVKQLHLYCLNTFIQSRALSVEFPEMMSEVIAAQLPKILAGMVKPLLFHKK
Description: as §1, §2, §3, §4, §5, §6, §7, §8, §9

[1] = set-up: method as in Nyffeler et al. 2018; conditions: cell culture plastic; ref Nyffeler et al. 2018; cited from earlier work
Pregnane X receptor = biological target: T4, Pregnane X receptor (Homo sapiens, UniProt O75469); assay: PXR CALUX; format: cell-based; conditions: 24 h exposure, lowest effect level PC10, means from 3 assay runs
T4 construct: host or cells: U-2 OS
T4 sequence (O75469 1-434): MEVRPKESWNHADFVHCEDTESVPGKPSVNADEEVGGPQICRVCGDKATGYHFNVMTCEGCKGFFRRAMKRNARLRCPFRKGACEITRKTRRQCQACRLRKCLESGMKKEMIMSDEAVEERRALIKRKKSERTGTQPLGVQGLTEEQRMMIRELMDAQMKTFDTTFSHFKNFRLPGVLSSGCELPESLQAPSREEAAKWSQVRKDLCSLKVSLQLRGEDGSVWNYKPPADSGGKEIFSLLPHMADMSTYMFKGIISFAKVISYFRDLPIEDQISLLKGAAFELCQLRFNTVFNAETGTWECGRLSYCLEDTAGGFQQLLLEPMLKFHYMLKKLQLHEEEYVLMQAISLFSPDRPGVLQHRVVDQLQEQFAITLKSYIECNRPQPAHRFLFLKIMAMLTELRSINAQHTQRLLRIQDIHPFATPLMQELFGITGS
Description: as §1, §2, §3, §4, §5, §6, §7, §8, §9

[2] = tested on: U-2 OS reporter cell lines battery; assay: CALUX reporter gene assay battery as a whole; conditions: all CALUX assays, 13 concentrations, 24 h exposure

T2 sequence (P03372 whole entry): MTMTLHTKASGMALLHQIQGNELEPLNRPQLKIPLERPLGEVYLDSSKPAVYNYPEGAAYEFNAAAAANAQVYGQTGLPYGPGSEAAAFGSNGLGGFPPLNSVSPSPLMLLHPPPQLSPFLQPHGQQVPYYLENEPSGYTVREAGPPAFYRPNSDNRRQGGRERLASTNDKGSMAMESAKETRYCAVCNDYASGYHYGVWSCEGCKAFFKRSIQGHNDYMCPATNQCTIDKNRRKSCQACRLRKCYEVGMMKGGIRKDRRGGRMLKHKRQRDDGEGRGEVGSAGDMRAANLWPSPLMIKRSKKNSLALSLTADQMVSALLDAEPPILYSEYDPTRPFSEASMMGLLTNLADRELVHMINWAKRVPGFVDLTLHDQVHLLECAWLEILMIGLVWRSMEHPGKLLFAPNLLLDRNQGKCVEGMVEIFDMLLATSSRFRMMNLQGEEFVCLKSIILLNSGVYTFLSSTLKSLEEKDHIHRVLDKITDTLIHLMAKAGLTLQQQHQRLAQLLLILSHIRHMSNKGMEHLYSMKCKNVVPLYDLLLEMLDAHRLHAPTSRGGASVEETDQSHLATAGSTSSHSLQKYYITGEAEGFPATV

Clc1cc(Cl)c(-c2cc(Cl)c(Cl)c(Cl)c2Cl)cc1Cl [PCB180, polychlorinated biphenyl 180]
PoD AR - anta (Androgen receptor): 6.1 -log(M) | PoD Erα - anta (Estrogen receptor alpha): 6.0 -log(M) | PoD PR - anta (Progesterone receptor): 6.3 -log(M) | fraction of the compound bound to plastic [1]: about one third | PoD PXR - ago (Pregnane X receptor): 5.5 -log(M) | response profile over the CALUX battery (in words) [2]: only activated nuclear hormone receptor related assays
